Measurements from ChEMBL document CHEMBL1955731, “Design and synthesis of novel bone-targeting dual-action pro-drugs for the treatment and reversal of osteoporosis” (Bioorg Med Chem, 2012).
Each block holds one compound with its values, some of them ahead of it.

Tests used:
Bone [1] = test: Binding affinity to rat bone at 0.1 mg/ml after 10 mins; assay type: ADME, tissue-based, Bone element
Plasma [2] = test: Prodrug conversion in rat plasma assessed as compound conversion to 7-((R)-2-((R,E)-4,4-difluoro-3-hydroxy-4-phenylbut-1-enyl)-5-oxopyrrolidin-1-yl)heptanoic acid at 100 ug/ml after 30 mins by HPLC analysis; assay type: ADME, cell-free; settings: 0.5 h
Plasma [3] = test: Prodrug conversion in rat plasma assessed as compound conversion to 7-((R)-2-((R,E)-4,4-difluoro-3-hydroxy-4-phenylbut-1-enyl)-5-oxopyrrolidin-1-yl)heptanoic acid at 100 ug/ml for 96 hrs by HPLC-MS-MS analysis; assay type: ADME, cell-free
Bone [4] = test: Drug uptake in Sprague-Dawley rat bone at 5 mg/kg, iv after 14 days; assay type: ADME, organism-based, Bone element; parameters: dose 5 mg/kg, route intravenous; settings: in vivo, 336 h
Bone [5] = test: Drug uptake in Sprague-Dawley rat bone at 5 mg/kg, iv after 24 hrs; assay type: ADME, organism-based, Bone element; parameters: dose 5 mg/kg, route intravenous; settings: in vivo
Bone [6] = test: Drug uptake in rat bone after 5 mins; assay type: ADME, tissue-based, Bone element; settings: in vivo
Bone [7] = test: Drug uptake in Sprague-Dawley rat bone at 5 mg/kg, iv after 7 days; assay type: ADME, organism-based, Bone element; parameters: dose 5 mg/kg, route intravenous; settings: in vivo, 168 h
Bone [8] = test: Drug uptake in Sprague-Dawley rat bone at 5 mg/kg, iv after 28 days; assay type: ADME, organism-based, Bone element; parameters: dose 5 mg/kg, route intravenous; settings: in vivo, 672 h
[9] = Drug excretion in Sprague-Dawley rat feces at 5 mg/kg, iv after 24 hrs; assay type: ADME, organism-based; parameters: dose 5 mg/kg, route intravenous; settings: in vivo
Rattus norvegicus = test: Toxicity in Sprague-Dawley rat at 5 mg/kg, iv; assay type: organism-based; parameters: dose 5 mg/kg, route intravenous; settings: in vivo
[10] = Drug excretion in Sprague-Dawley rat urine at 5 mg/kg, iv after 24 hrs; assay type: ADME, organism-based; parameters: dose 5 mg/kg, route intravenous; settings: in vivo
[11] = Elimination half life in Sprague-Dawley rat at 5 mg/kg, iv; assay type: ADME, organism-based; parameters: dose 5 mg/kg, route intravenous; settings: in vivo, read-out: beta t1/2
Bone [12] = test: Drug uptake in Sprague-Dawley rat bone at 10 mg/kg, iv after 7 days; assay type: ADME, organism-based, Bone element; parameters: dose 10 mg/kg, route intravenous; settings: in vivo, 168 h
Bone [13] = test: Drug uptake in Sprague-Dawley rat bone at 10 mg/kg, iv after 2 days; assay type: ADME, organism-based, Bone element; parameters: dose 10 mg/kg, route intravenous; settings: in vivo, 48 h
Bone [14] = test: Drug uptake in Sprague-Dawley rat bone at 10 mg/kg, iv after 6 hrs; assay type: ADME, organism-based, Bone element; parameters: dose 10 mg/kg, route intravenous; settings: in vivo
Bone [15] = test: Drug uptake in Sprague-Dawley rat bone at 10 mg/kg, iv after 14 days; assay type: ADME, organism-based, Bone element; parameters: dose 10 mg/kg, route intravenous; settings: in vivo, 336 h
[16] = Elimination half life in Sprague-Dawley rat at 10 mg/kg, iv; assay type: ADME, organism-based; parameters: dose 10 mg/kg, route intravenous; settings: in vivo, read-out: beta t1/2

Activity (Bone [1]): Not Active
Structure (SMILES): O=C(O)CCCCCCN1C(=O)CC[C@@H]1/C=C/[C@@H](O)C(F)(F)c1ccccc1

Activity (Bone [1]): Not Active
Structure (SMILES): O=C1CC[C@H](/C=C/[C@@H](O)C(F)(F)c2ccccc2)N1CCCCCCc1nnn[nH]1

Drug metabolism (Plasma [2]): Active | Activity (Bone [1]): Not Active
Structure (SMILES): CCOC(=O)CCCCCCN1C(=O)CC[C@@H]1/C=C/[C@@H](O)C(F)(F)c1ccccc1

Drug metabolism (Plasma [3]): Not Active
Structure (SMILES): CCOC(=O)CCCCCCN1C(=O)CC[C@@H]1/C=C/[C@@H](OC(=O)NCCCC(O)(P(=O)(O)O)P(=O)(O)O)C(F)(F)c1ccccc1

Drug uptake (Bone [4]): 6.2% | Drug uptake (Bone [5]): 9.4% | Drug uptake (Bone [6]): 96% | Drug uptake (Bone [7]): 8% | Drug uptake (Bone [8]): 5.6% | Drug excretion [9]: Active | Drug excretion [10]: Not Active | half-life [11]: < 15 min | Activity (Bone [1]): 90%
Structure (SMILES): [3H]C([3H])([3H])COC(=O)CCCCCCN1C(=O)CC[C@@H]1/C=C/[C@@H](OC(=O)NCCCC(O)(P(=O)(O)O)P(=O)(O)O)C(F)(F)c1ccccc1
Activity (Rattus norvegicus): Non-toxic

Structure (SMILES): CCN(CC)CC.[3H]C([3H])([3H])COC(=O)CCCCCCN1C(=O)CC[C@@H]1/C=C/[C@@H](OC(=O)Cc1ccc(OC(=O)NCCCC(O)(P(=O)(O)O)P(=O)(O)O)cc1)C(F)(F)c1ccccc1
Drug uptake (Bone [12]): 2.2% | Drug uptake (Bone [13]): 4.9% | Drug uptake (Bone [14]): 5.9% | Drug uptake (Bone [15]): 1.4% | half-life [16]: < 30 min
